Data published in US12193442B2, “Modulation of plant biology” (FBSCIENCES HOLDINGS, INC., priority 2012, dated 2025).

Experiments:
Assay type in all cases: in vivo
[1] = test system: tomato plants (Lycopersicon es.); test: Experiment Fe-4: addition of low levels of iron to CPPA, foliar application; conditions: for Leaf # / Plt. Ht. / Plt. Wt. / Root Wt. / Shoot Wt. / Vigor: foliar
Source text: Experiment Fe-4: The purpose of this experiment was to determine if the addition of low levels of iron to a CPPA sample containing lower than typical amounts of iron (e.g., Fe/TOC=0.135) would increase the biological response of plants. Nominal Fe/TOC ratios for CPPA range from 0.10 to 0.28 but the optimum ratio for “as-is” samples of CPPA, as determined in the previous experiments, is between 0.2 and 0.25. Thus, for this experiment, non-agrochemically effective amounts of iron were combined with CPPA samples. Tomato plants (Lycopersicon es.) were produced from seed and transplanted into 3 inch by 3 inch pots. There were 16 treatments plus an untreated check with 20 replicates per treatment arranged in a Randomized Complete Block design. Pots were treated with water (UTC), or CPPA only (3 different rates), Fe only (3 different rates), or CPPA and Fe at each of the rates. The CPPA rates corresponded to 260, 520, and 1040 mg organic carbon (TOC) per hectare and the Fe rates corresponded to 130, 260, and 520 mg Fe per hectare. All pots were treated by foliar application immediately after transplanting. Ten days after the application, ten of the plants were harvested and assessed for vigor, leaf number, plant height, plant weight, root weight, and shoot weight. […] Additional application rates of CPPA and Fe were evaluated with similar synergistic results observed for the combination of CPPA with amounts of iron. Twenty days after transplanting, the remaining ten plants in each treatment were assessed.

seeds = test: Seed treatment observations with CPPA, iron-removed CPPA and Fe; conditions: treating seeds with Fe alone
Source text: These observations support the premise that the combination of CPPA and Fe are synergistic in their interaction and biological effect on plants and/or seeds.

[2] = test system: tomato plants (Lycopersicon es.); test: Experiment Salt-2: foliar treatment of CPPA/salt formulations; conditions: ten and twenty day assessments averaged
Protocol: There were a total of 8 treatments plus an untreated check, with 20 replicates per treatment arranged in a randomized block design. Aqueous solutions of CPPA (1000 mg TOC/L) and salt (5000 mg/L) were used for this experiment and all plants were treated with a foliar application at the time they were transplanted into the pots. Each treatment contained CPPA alone, salt alone, or CPPA plus salt. Two rates of CPPA were used; the first was equivalent to 260 mg of TOC per hectare and a second equivalent to 1040 mg of TOC per hectare. […] All treatments were diluted with water to provide a final spray volume equivalent to 208 lit per hectare, applied with a spray bottle, with just enough spray solution to wet the leaf surface of each plant. Ten days after applications, ten each of the plant samples in each treatment were assessed for vigor, leaf number, plant height, plant weight, root weight, and shoot weight. Assessments were repeated at twenty days with the remaining ten plants of each treatment and the results were averaged. FIG. 17 depicts observed vigor, leaf number, plant height, plant weight, root weight, and shoot weight results for treatments to the tomato plants with 0 mg and 260 mg CPPA/ha application rate with variable salt application rates, which are also summarized in Table 4.

[3] = test system: wheat seeds (Triticum aestivum); test: Experiment Salt-3: soil treatments of CPPA/salt formulations; conditions: soil drench, 28 days after treatment
Protocol: For this experiment, wheat seeds (Triticum aestivum) were planted in small pots, approximately 1 inch in diameter and an inch in depth. There were a total of 8 treatments plus an untreated check, with 20 replicates per treatment arranged in a randomized block design. […] Treatments contained CPPA alone, salt alone, or CPPA plus salt. Two rates of CPPA were used; the first was equivalent to 520 mg of TOC per hectare and a second equivalent to 1040 mg of TOC per hectare. […] Twenty eight days after treatment the plants were assessed for plant weight, root weight, and shoot weight. FIG. 19 depicts plant weight, root weight, and shoot weight results for treatments with 520 mg CPPA/ha in combination with varying salt rates, which are summarized in Table 12.

[4] = test system: tomato plants (Lycopersicon es.); test: Experiment Salt-1: CPPA/NaCl composition, foliar application
Protocol: Experiment Salt-1: […] There were a total of 5 treatments plus an untreated check, each with 10 replicates per treatment arranged in a randomized block design. […] Each treatment comprised samples treated with CPPA alone, salt alone, or CPPA plus salt. Two rates of CPPA were used; the first was equivalent to 520 mg of TOC per hectare and a second equivalent to 1040 mg of TOC per hectare. Salt was applied at a rate equivalent to 2.6 g of salt per hectare. All treatments were diluted with water to provide a final spray volume equivalent to 208 lit per hectare, made with a spray bottle, with just enough spray solution to wet the leaf surface of each plant. Ten days after treatment the plants were assessed for vigor, leaf number, plant height, plant weight, root weight, shoot weight, and leaf conductance using a SPAD meter and are summarized in Table 8 and depicted in FIGS. 10-16.

[5] = CPPA 260 mg TOC/ha and/or Fe 130 mg Fe/ha (FeSO4), second assessment, 20 days after application
[6] = CPPA 520 mg TOC/ha and/or Fe 130 mg Fe/ha (FeSO4), 20 days after application
[7] = CPPA 1040 mg TOC/ha and/or Fe 520 mg Fe/ha (FeSO4), first assessment, 10 days after application
[8] = CPPA 1040 mg TOC/ha and/or Fe 520 mg Fe/ha (FeSO4), second assessment, 20 days after application
[9] = CP 1040 mg/ha and/or NaCl 1300 mg/ha
[10] = NaCl 2600 mg/ha alone or with CP 1040 mg/ha
[11] = CP 520 mg/ha and/or NaCl 1300 mg/ha
[12] = CP 1040 mg TOC/ha and/or NaCl 1300 mg/ha
[13] = NaCl 2600 mg/ha alone or with CP 520 mg/ha
[14] = NaCl 2600 mg/ha alone or with CP 1040 mg TOC/ha
[15] = CPPA 520 mg TOC/ha and/or NaCl 2600 mg/ha, ten days after treatment

## O=S(=O)([O-])[O-].[Fe+2] [Fe, FeSO4]
[1]; [5]
  Leaf #: 6.3 ab
  Plt. Ht.: 6.4 abc
  Plt. Wt.: 6.4 c
  Root Wt.: 3.0 c
  Shoot Wt.: 3.4 cd
  Vigor: 2.1 c
[1]; [6]
  Leaf #: 6.3 ab
  Plt. Ht.: 6.4 ab
  Plt. Wt.: 6.4 b
  Root Wt.: 3.0 b
  Shoot Wt.: 3.4 ab
  Vigor: 2.1 c
[1]; [7]
  Leaf #: 6.6 ab
  Plt. Ht.: 4.2 b
  Plt. Wt.: 4.9 b
  Root Wt.: 1.4 bc
  Shoot Wt.: 3.6 b
  Vigor: 3.8 b
[1]; [8]
  Leaf #: 5.1 b
  Plt. Ht.: 6.3 b
  Plt. Wt.: 4.5 b
  Root Wt.: 1.6 bc
  Shoot Wt.: 2.9 cd
  Vigor: 2.5 c
[1]; high application rate of CPPA alone or of Fe alone, FIG. 9F, Table 4
  biological effect on plant, root and shoot weights relative to UTC: apparent slightly negative biological effect on the plant, root and shoot weights, although it was not statistically significant
seeds
  root development and shoot development: negative effect on root development and on shoot development

## [Cl-].[Na+] [NaCl]
[2]; [9]
  Leaf #: 4.7 de
  Plt. Ht.: 4.7 cd inches
  Plt. Wt.: 3.7 d grams
  Root Wt.: 1.4 cd grams
  Shoot Wt.: 2.3 e grams
  Vigor (1-5): 2.9 de
[2]; [10]
  Leaf #: 4.1 f
  Plt. Ht.: 4.1 e inches
  Plt. Wt.: 3 de grams
  Root Wt.: 1.0 d grams
  Shoot Wt.: 2.0 ef grams
  Vigor (1-5): 2.2 g
[3]; [11]
  Plt. Wt.: 2.1cd
  Root Wt.: 0.4bc
  Shoot Wt.: 1.8c
[3]; [12]
  Plt. Wt.: 2.1de
  Root Wt.: 0.4cd
  Shoot Wt.: 1.8 days
[3]; [13]
  Plt. Wt.: 2 days
  Root Wt.: 0.3cd
  Shoot Wt.: 1.7c
[3]; [14]
  Plt. Wt.: 2e
  Root Wt.: 0.3de
  Shoot Wt.: 1.7 days
[4]; [15]
  Leaf #: 5.3 e
  Plt. Ht.: 3.5 b
  Plt. Wt.: 2.7 c
  Root Wt.: 0.8jc
  SPAD (leaf conductance using a SPAD meter): 24.2 b
  Shoot Wt.: 2.0 c
  Vigor: 2.4 b
[4]; Table 8, ten days
  phytotoxicity of salt and its mitigation: expected poorest results, indicating a significant amount of phytotoxicity
